The nature of this series: solvent given as SMILES.

This is an account of results in the Deep4Chem optical property database.

The structures appear in SMILES notation. Values joined by “and” are separate entries in the source; they are usually repeats but may differ in a detail not shown here. Equal values may be shown once.

With `c1csc(-c2cnc(-c3cccs3)c3nonc23)c1`, the emission maximum reads like this: (in C1CCCCC1) 567 nm; (in CC(C)=O) 612 nm; (in CCCCCC) 564 nm; (in CCCO) 611 nm; (in CCO) 614 nm; (in CCOCC) 587 nm. Besides, the emission maximum by setting is: (in CO) 616 nm; (in Cc1ccccc1) 600 nm; (in ClC(Cl)(Cl)Cl) 580 nm; (in ClC(Cl)Cl) 611 nm; (in O=[N+]([O-])c1ccccc1) 614 nm; (in OCC(O)CO) 633 nm. The emission maximum stood at 628 nm (in OCc1ccccc1), 625 nm (in c1ccc2ncccc2c1), 601 nm (in c1ccccc1) and 617 nm (in c1ccncc1).

`CCN(CC)c1ccc2cc3ccc(=[N+](CC)CC)cc-3oc2c1`: the emission maximum reads like this: (in CC#N) 549 nm; (in CCO) 557 nm; (in CN(C)C=O) 532 nm; (in O) 555 nm.

Under “in ClCCl”, `C[Si]1(C)c2cc(-c3cccs3)ccc2C=Cc2ccc(-c3cccs3)cc21` had an emission maximum of 415 nm.

As to `N#CSC1=CC2=C(c3ccccc3)c3ccc(N4CCOCC4)n3[B-](F)(F)[N+]2=C1N1CCOCC1`, the emission maximum is given as 605 nm (in CC#N); 599 nm (in CCCCCC); 604 nm (in CCOC(C)=O); 599 nm (in CO); 603 nm (in ClCCl).

In the case of `CC1=C(C2=C(C)C(C)=[N+]3C2=Cc2cc(C)c(C)n2[B-]3(F)F)C2=Cc3cc(C)c(C)n3[B-](F)(F)[N+]2=C1C`, the emission maximum (in ClCCl) is listed as 598 nm.

Take `O=Cc1cnc(-c2c3ccccc3cc3ccccc23)nc1`: the emission maximum is, setting by setting: (in CCO) 438 nm; (in ClCCl) 531 nm.

On to `CCOc1cc(C=C2c3ccccc3-c3ccccc32)c(OCC)cc1C=C1c2ccccc2C=Cc2ccccc21`, for which the emission maximum (in C1CCOC1) is 474 nm.

With `COC(=O)C1=C(C(=O)OC)[Se](=O)[C@]23C1=C[C@H](c1ccccc12)c1ccccc13` (some centres undefined), the emission maximum (in ClCCl) was found to be 495 nm.

For the setting “in O”, `O=C(O)CCCCCn1c2ccc(Br)cc2c(=O)c2cc(Br)ccc21` had an emission maximum of 439 nm.

As to `Cc1ccc(N2C(c3ccccc3[N-]S(=O)(=O)c3ccc(C)cc3)=[NH+]C(c3ccccc3)C2c2ccccc2)cc1` (centres undefined), where the note is “in Cc1ccccc1”, the emission maximum is listed as 499 nm.

The molecule `O=C1O[B-]2(OC1=O)OC(c1ccc3ccccc3c1)=CC(c1ccc3ccccc3c1)=[O+]2` yielded an emission maximum (in CC#N) of 550 nm and an emission maximum (in ClC(Cl)(Cl)Cl) of 451 nm.

Consider `COc1ccc2c(c1)cc(C)c1c3ccccc3[nH]c21`, for which the emission maximum (in ClCCl) is reported as 363 nm.

Consider `CN(C)c1ccc(-c2cc(=O)c3ccccc3o2)cc1`, for which the emission maximum (in C1CCCCC1) is 382.35 nm; the emission maximum (in CC#N) was 474 nm and 462.75 nm; the emission maximum (in CCOC(C)=O) was 442 nm and 433.73 nm; the emission maximum (in Cc1ccccc1) is reported as 417 nm.

On to `O=C(O)CCCCCn1c2ccccc2c(=O)c2cc(F)ccc21`, for which, where the note is “in O”, the emission maximum is 432 nm.

`CCCCCCCCCCn1c(-c2cc(-c3nc4ccccc4n3CCCCCCCCCC)cc(-c3nc4ccccc4n3CCCCCCCCCC)c2)nc2ccccc21` displayed an emission maximum (in C1CCOC1) of 360.5 nm.

In the case of `CCCC1=Cc2nc1ccc1[nH]c(cc1CCC)c1nc(c(OCc3ccc(C(=O)O)cc3)cc3[nH]c2cc3CCC)C(CCC)=C1`, under “in Cc1ccccc1”, the emission maximum was found to be 685 nm.

The molecule `COc1cccc(C2=C3C=C(/C=C/C(=O)OC(C)(C)C)C=[N+]3[B-](F)(F)n3cccc32)c1` returned an emission maximum (in ClCCl) of 581 nm.

For the setting “in CC#N”, `F[B-]1(F)OC(c2ccc3c(c2)Cc2ccccc2-3)=CC(c2ccccc2)=[O+]1` showed an emission maximum of 491 nm.

With `F[B-]1(F)OC(c2ccc(Br)cc2)=Cc2c3ccccc3c3ccccc3[n+]21`, the emission maximum (in ClC(Cl)Cl) was 449 nm.

The molecule `c1cc2c3c(c1)OCCCCCCOc1cccc(c1-c1c4ccccc4c-3c3ccccc13)OCCCCCCO2` came in with an emission maximum (in C1CCCCC1) of 429 nm.

Consider `C(=C\c1ccc(-c2nnc(-c3ccc(/C=C/c4ccc(-c5nc(-c6ccccc6)c(-c6ccccc6)[nH]5)cc4)cc3)o2)cc1)/c1ccc(-c2nc(-c3ccccc3)c(-c3ccccc3)[nH]2)cc1`, for which the emission maximum runs as follows: (in C1CCOC1) 492 nm; (in CC#N) 525 nm; (in CN(C)C=O) 524 nm; (in Cc1ccccc1) 445 nm.

Turning to `O=CC1=C(c2ccc(-c3cccs3)s2)CCC1`, the emission maximum was determined as 479 nm (in C1CCOC1); 493 nm (in CC#N); 456 nm (in CCCCCC); 514 nm (in CCO); 527 nm (in OCCOCCO); 494 nm (in c1ccncc1).

With `COc1ccc(-c2c3cc4ccccc4cc3c(-c3ccc(OC)cc3)c3cc4ccccc4cc23)cc1`, the emission maximum (in ClCCl) turned out to be 620 nm.

`Cc1ccc(-n2c(-c3ccc(N(c4ccc(-c5ccc(N(c6ccc(-c7nc8c9ccccc9c9ccccc9c8n7-c7ccc(C)cc7)cc6)c6ccc(-c7nc8c9ccccc9c9ccccc9c8n7-c7ccc(C)cc7)cc6)cc5)cc4)c4ccc(-c5nc6c7ccccc7c7ccccc7c6n5-c5ccc(C)cc5)cc4)cc3)nc3c4ccccc4c4ccccc4c32)cc1` gave an emission maximum (in ClCCl) of 435 nm.

As to `CCn1c2ccccc2c2cc(/C=C/c3cccc(/C=C/c4ccc5c(c4)c4ccccc4n5CC)[n+]3CCCS(=O)(=O)[O-])ccc21`, the emission maximum was 581 nm (in C1CCOC1), 579 nm (in CC#N), 578 nm (in CC(C)=O) and 598 nm (in Cc1ccccc1).

On to `CCCCN1c2ccccc2Sc2cc(/C=C/C3=Nc4ccc5ccccc5c4C3(C)C)ccc21`, for which the emission maximum reads like this: (in C1CCCCC1) 517 nm; (in C1CCOC1) 571 nm; (in C1COCCO1) 562 nm; (in CC#N) 610 nm; (in CC(C)=O) 598 nm; (in CC(C)O) 602 nm. For the same molecule, the emission maximum is 564 nm (in CCOC(C)=O); 546 nm (in CCOCC); 635 nm (in CO); 612 nm (in CS(C)=O); 550 nm (in Cc1ccccc1); 595 nm (in ClCCl).

For the setting “in ClC(Cl)Cl”, `Cc1c2c(nc3ccccc13)-c1cc3c(cc1CC2)-c1nc2ccccc2c(C)c1CC3` registered an emission maximum of 383 nm.

For `CC1=[N+]2C(=C(c3ccc4c(c3)Cc3ccccc3-4)c3ccc(C)n3[B-]2(F)F)C=C1c1cc2n(c1)[B-](F)(F)[N+]1=CC=CC1=C2c1c(C)cc(C)cc1C`, the emission maximum amounted to 645 nm (in C1CCCCC1) and 675 nm (in CCOC(C)=O).

`O=[N+]([O-])c1ccc(-n2c3ccccc3c3c2c2ccccc2n3-c2ccccc2)cc1` had an emission maximum (in Cc1ccccc1) of 660 nm.

In turn, `Cc1ccc2nc3cc4ccccc4cc3c(-c3ccccc3)c2c1` displayed an emission maximum (in ClCCl) of 521 nm.

Where the note is “in ClCCl”, `COc1ccc2oc(=N)c(C#N)cc2c1` displayed an emission maximum of 468 nm.

Regarding `CC(=O)OC[C@H]1O[C@@H](OCC#Cc2ccc(C3=C4C(C)=CC(/C=C/c5ccc(N(C)C)cc5)=[N+]4[B-](F)(F)n4c(/C=C/c5ccc(N(C)C)cc5)cc(C)c43)cc2)[C@H](OC(C)=O)C(OC(C)=O)[C@@H]1OC(C)=O` (some centres undefined), the emission maximum (in CC#N) is 769 nm.

With `CCCCCCCCN1C(=O)c2ccc3c4c(-c5ccc6c(c5)c5ccccc5n6-c5ccccc5)cc5c6c(cc(-c7ccc8c(c7)c7ccccc7n8-c7ccccc7)c(c7ccc(c2c37)C1=O)c64)C(=O)N(CCCCCCCC)C5=O`, the emission maximum (in ClC(Cl)Cl) is 663 nm.

Consider `CCCCCCCCCCCCOc1ccc(C#CC(C#Cc2ccc(OCCCCCCCCCCCC)cc2)=Cc2cc(C=C(C#Cc3ccc(OCCCCCCCCCCCC)cc3)C#Cc3ccc(OCCCCCCCCCCCC)cc3)cc(C=C(C#Cc3ccc(OCCCCCCCCCCCC)cc3)C#Cc3ccc(OCCCCCCCCCCCC)cc3)c2)cc1`, for which the emission maximum (in CCOC(C)=O) came out at 428 nm.

For `Cn1cc(-c2nc3ccccc3nc2/C=C/N2CCCC2)c2ccccc21`, the emission maximum runs as follows: (in CC#N) 556.97 nm; (in CC(C)=O) 465.99 nm; (in CCO) 548.05 nm.

The molecule `CN1/C(=C/C=C(/C=C/c2sc3ccccc3[n+]2C)c2ccc(C(F)(F)F)cc2)Sc2ccccc21` gave an emission maximum (in CCO) of 678 nm, an emission maximum (in CO) of 676 nm, an emission maximum (in CS(C)=O) of 668 nm and an emission maximum (in O) of 659 nm.

Under “in CC1CCCO1”, `c1ccc2c(c1)-c1ccccc1C21c2ccccc2-c2ncccc21` showed an emission maximum of 333 nm.

Regarding `N#Cc1c(N2CCCCC2)cc(-c2cccc3ccccc23)c2c1C(=O)c1ccccc1-2`, the emission maximum (in C1CCOC1) was 460 nm.

In turn, `O=S(=O)(c1cccc(N2c3ccccc3Oc3ccccc32)c1)c1cccc(N2c3ccccc3Oc3ccccc32)c1` came in with an emission maximum (in C1CCOC1) of 596 nm; an emission maximum (in CCCCC(CC)n1c2ccc(-n3c4ccccc4c4ccccc43)cc2c2cc(-n3c4ccccc4c4ccccc43)ccc21) of 542.52 nm; an emission maximum (in Cc1ccccc1) of 547 nm; an emission maximum (in ClC(Cl)Cl) of 572 nm; an emission maximum (in c1cc(-n2c3ccccc3c3ccccc32)cc(-n2c3ccccc3c3ccccc32)c1) of 546.26 nm.

Take `C(=C\c1c2ccccc2cc2ccccc12)/c1ccc2ccccc2n1`: the emission maximum (in CC1CCCCC1) is recorded as 492 nm and the emission maximum (in CC#N) is 510 nm.

As to `O=C1c2ccccc2C2=Nc3ccc4ccccc4[n+]3[B-](F)(F)N12`, the emission maximum (in ClCCl) is recorded as 444 nm.

In the case of `CC1=CC(C)=[N+]2C1=C(c1ccc(N3CCOCC3)cc1)c1c(C)cc(C)n1[B-]2(F)F`, the emission maximum is 514 nm (in C1CCOC1); 511 nm (in CC#N); 520 nm (in CC(=O)C(C)(C)C); 516 nm (in CC(C)=O); 511 nm (in CCCCCC); 517 nm (in CCOC(C)=O). The emission maximum (in CO) is recorded as 514 nm.

`N#Cc1cc(N2c3ccccc3Oc3ccccc32)cc(N2c3ccccc3Oc3ccccc32)c1` had an emission maximum (in Cc1ccccc1) of 520 nm.
